Test results as given in PubChem BioAssay (NCI).
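Abbreviation: GI50, concentration required for 50% inhibition of growth. TGI: concentration producing complete growth inhibition.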

Assays:
Test in all cases: NCI anticancer screen, dose series, 384-well format
NCI-H460 NSCLC = system: NCI-H460 NSCLC
DU-145 prostate = system: DU-145 prostate
NCI-H322M lung = system: NCI-H322M lung
OVCAR-4 ovarian = system: OVCAR-4 ovarian
TK-10 renal = system: TK-10 renal
OVCAR-8 ovarian = system: OVCAR-8 ovarian
MCF7 breast = system: MCF7 breast
SNB-19 CNS = system: SNB-19 CNS
UACC-62 melanoma = system: UACC-62 melanoma
UACC-257 melanoma = system: UACC-257 melanoma
SK-MEL-5 melanoma = system: SK-MEL-5 melanoma
BT-549 breast = system: BT-549 breast
OVCAR-3 ovarian = system: OVCAR-3 ovarian
NCI-H522 lung = system: NCI-H522 lung
SF-539 CNS = system: SF-539 CNS
HOP-62 NSCLC = system: HOP-62 NSCLC
EKVX NSCLC = system: EKVX NSCLC
MDA-MB-468 breast = system: MDA-MB-468 breast
HCT-116 colon = system: HCT-116 colon
RXF 393 renal = system: RXF 393 renal
OVCAR-5 ovarian = system: OVCAR-5 ovarian
PC-3 prostate = system: PC-3 prostate
K-562 leukemia = system: K-562 leukemia
SR leukemia = system: SR leukemia
U251 glioblastoma = system: U251 glioblastoma
NCI-H226 lung = system: NCI-H226 lung
UO-31 renal = system: UO-31 renal
NCI-H23 lung = system: NCI-H23 lung

Compound: CN[C@@H](C)C(=O)N[C@H](C(=O)N1CCC[C@H]1C(=O)Nc1sc(-c2ncco2)nc1-c1ccccc1)C1CCCCC1
- GI50 (NCI-H460 NSCLC): 7.4 µM
- TGI (NCI-H460 NSCLC): 21.3 µM
- GI50 (DU-145 prostate): 1.03 µM
- TGI (DU-145 prostate): 10.5 µM
- GI50 (NCI-H322M lung): 13.5 µM
- TGI (NCI-H322M lung): 39.6 µM
- GI50 (OVCAR-4 ovarian): < 0.01 µM
- GI50 (TK-10 renal): 11.3 µM
- TGI (TK-10 renal): 24.4 µM
- GI50 (OVCAR-8 ovarian): 1.02 µM
- TGI (OVCAR-8 ovarian): 2.87 µM
- GI50 (MCF7 breast): 0.16 µM
- TGI (MCF7 breast): 1.18 µM
- GI50 (SNB-19 CNS): 18.6 µM
- TGI (SNB-19 CNS): 61.4 µM
- GI50 (UACC-62 melanoma): 0.781 µM
- TGI (UACC-62 melanoma): 10.9 µM
- GI50 (UACC-257 melanoma): 2.27 µM
- TGI (UACC-257 melanoma): 13.3 µM
- GI50 (SK-MEL-5 melanoma): 0.114 µM
- TGI (SK-MEL-5 melanoma): 1.38 µM
- GI50 (BT-549 breast): 0.234 µM
- TGI (BT-549 breast): 2.32 µM
- GI50 (OVCAR-3 ovarian): 1.36 µM
- TGI (OVCAR-3 ovarian): 15.5 µM
- GI50 (NCI-H522 lung): 0.0966 µM
- TGI (NCI-H522 lung): 1.08 µM
- GI50 (SF-539 CNS): 3.44 µM
- TGI (SF-539 CNS): 17.3 µM
- GI50 (HOP-62 NSCLC): 1.08 µM
- TGI (HOP-62 NSCLC): 2.68 µM
- GI50 (EKVX NSCLC): 10.7 µM
- TGI (EKVX NSCLC): 32.2 µM
- GI50 (MDA-MB-468 breast): 0.476 µM
- TGI (MDA-MB-468 breast): 5.23 µM
- GI50 (HCT-116 colon): 0.43 µM
- TGI (HCT-116 colon): 14.3 µM
- GI50 (RXF 393 renal): < 0.01 µM
- TGI (RXF 393 renal): 0.0402 µM
- GI50 (OVCAR-5 ovarian): 10.7 µM
- TGI (OVCAR-5 ovarian): 34.2 µM
- GI50 (PC-3 prostate): 6.22 µM
- TGI (PC-3 prostate): 19.8 µM
- GI50 (K-562 leukemia): 2.18 µM
- TGI (K-562 leukemia): 16.6 µM
- GI50 (SR leukemia): 0.182 µM
- TGI (SR leukemia): 0.592 µM
- GI50 (U251 glioblastoma): 5.48 µM
- TGI (U251 glioblastoma): 19.3 µM
- GI50 (NCI-H226 lung): 5.52 µM
- TGI (NCI-H226 lung): 27.5 µM
- GI50 (UO-31 renal): 15.9 µM
- TGI (UO-31 renal): 29.6 µM
- GI50 (NCI-H23 lung): 0.159 µM
